{"source": "patent US20200253877A1", "about": "“GEMCABENE, PHARMACEUTICALLY ACCEPTABLE SALTS THEREOF, COMPOSITIONS THEREOF AND METHODS OF USE THEREFOR” (NEUROBO PHARMACEUTICALS, INC., priority 2018, published 2020)", "test_system": "hepatic mRNA expression in STAM™ mice", "assay": "Murine STAM model of NASH-HCC: hepatic gene expression by quantitative RT-PCR", "type": "in vivo, mouse", "settings": "n = 8, STAM mice, normalized to non-treated group", "procedure": "A study was performed to evaluate the efficacy of gemcabene calcium salt hydrate Crystal Form 1 having a PSD90 of 52 μm as measured by laser light diffraction, in treating non-alcoholic steatosis hepatitis (NASH) in the murine STAM™ model of NASH-HCC.\nBriefly, two-day old neonatal C57BL/6 male mice were administered low-dose streptozotocin (STZ), and were subsequently fed a HFC diet from 4 weeks of age. In this model, the mice typically develop liver steatosis and diabetes, reaching steatohepatitis within 3 weeks, followed by cirrhosis within 8 weeks, and carcinoma within 16 weeks. In the current study, mice were administered daily oral gemcabene calcium salt hydrate Crystal Form 1 starting at week 6 of age and were sacrificed at week 9. […] These STAM™ groups were orally administered from week 6 one of the following: water-vehicle, gemcabene calcium salt hydrate Crystal Form 1 at 30, 100 and 300 mg/kg daily, or telmisartan ([…]®) 10 mg/kg daily. […] All groups were sacrificed at week 9. Vehicle, gemcabene calcium salt hydrate Crystal Form 1, or telmisartan were administered by oral gavage once daily.\nVarious gene expression markers of liver metabolism were evaluated by Real-Time PCR (RT-PCR) in all mouse groups. Total RNA was extracted from liver samples using RNAiso (Takara Bio, Japan) according to the manufacturer's instructions. […] of RNA was reverse-transcribed using a reaction mixture containing 4.4 mM MgCl2 (F. Hoffmann-La Roche, Switzerland), 40 U RNase inhibitor (Toyobo, Japan), 0.5 mM dNTP (Promega, USA), 6.28 μM random hexamer (Promega), 5×first strand buffer (Promega), 10 mM dithiothreitol (Invitrogen, USA) and 200 U MMLV-RT (Invitrogen) in a final volume of 20 μL. The reaction was carried out for 1 hour at 37° C., followed by 5 minutes at 99° C. Real-time PCR was performed using real-time PCR DICE and SYBR premix Taq (Takara Bio). To calculate the relative mRNA expression level, the expression of each gene was normalized to that of reference gene 36B4 (gene symbol: RplpO). Information of PCR-primer sets is described in Tables 37A-37C. Statistical analyses were performed using the Bonferroni Multiple Comparison Test on GraphPad Prism 6 (GraphPad Software Inc., USA). P values <0.05 were considered statistically significant. Results are expressed as mean±SD.\nIn order to calculate the relative mRNA expression level, the expression of each gene was normalized to that of the reference gene 36B4 (gene symbol: RplpO). The gene expression levels were measured by quantitative RT-PCR. Results were normalized with values for the vehicle-treated normal group. […] Gemcabene calcium salt hydrate Crystal Form 1 (PSD90=52 μm) modulated the mRNA expression of many hepatic genes that play a significant role in the liver homeostasis and injury."}
{"smiles": "CC(C)(CCCCOCCCCC(C)(C)C(=O)O)C(=O)O", "note": "[gemcabene, 6-(5-carboxy-5-methyl-hexyloxy)-2,2-dimethyl-hexanoic acid]", "values": [{"measurement": "ACC1 gene expression (mean ± SD)", "setting": "30 mg/kg", "value": "1.0 ± 0.1"}, {"measurement": "ACC2 gene expression (mean ± SD)", "setting": "30 mg/kg", "value": "0.6 ± 0.2"}, {"measurement": "ADH-4 gene expression (mean ± SD)", "setting": "30 mg/kg", "value": "0.8 ± 0.2"}, {"measurement": "ANGPTL3 gene expression (mean ± SD)", "setting": "30 mg/kg", "value": "0.7 ± 0.2"}, {"measurement": "ANGPTL4 gene expression (mean ± SD)", "setting": "30 mg/kg", "value": "2.9 ± 0.5"}, {"measurement": "ANGPTL8 gene expression (mean ± SD)", "setting": "30 mg/kg", "value": "0.3 ± 0.1"}, {"measurement": "ApoC-III gene expression (mean ± SD)", "setting": "30 mg/kg", "value": "0.7 ± 0.1"}, {"measurement": "CCR2 gene expression (mean ± SD)", "setting": "30 mg/kg", "value": "3.3 ± 1.0"}, {"measurement": "CCR5 gene expression (mean ± SD)", "setting": "30 mg/kg", "value": "2.4 ± 0.9"}, {"measurement": "CRP gene expression (mean ± SD)", "setting": "30 mg/kg", "value": "0.9 ± 0.2"}, {"measurement": "CXCL1/KC gene expression (mean ± SD)", "setting": "30 mg/kg", "value": "0.8 ± 0.4"}, {"measurement": "Fetuin-A gene expression (mean ± SD)", "setting": "30 mg/kg", "value": "1.1 ± 0.4"}, {"measurement": "IL-1β gene expression (mean ± SD)", "setting": "30 mg/kg", "value": "1.0 ± 0.5"}, {"measurement": "IL-6 gene expression (mean ± SD)", "setting": "30 mg/kg", "value": "4.6 ± 4.7"}, {"measurement": "LDL receptor gene expression (mean ± SD)", "setting": "30 mg/kg", "value": "0.9 ± 0.2"}, {"measurement": "LPL gene expression (mean ± SD)", "setting": "30 mg/kg", "value": "3.8 ± 0.9"}, {"measurement": "MCP-1 gene expression (mean ± SD)", "setting": "30 mg/kg", "value": "3.2 ± 1.5"}, {"measurement": "MIP-1β gene expression (mean ± SD)", "setting": "30 mg/kg", "value": "5.4 ± 3.2"}, {"measurement": "MMP-2 gene expression (mean ± SD)", "setting": "30 mg/kg", "value": "1.7 ± 0.5"}, {"measurement": "NF-κB gene expression (mean ± SD)", "setting": "30 mg/kg", "value": "1.3 ± 0.2"}, {"measurement": "PNPLA3 gene expression (mean ± SD)", "setting": "30 mg/kg", "value": "0.3 ± 0.1"}, {"measurement": "SCD1 gene expression (mean ± SD)", "setting": "30 mg/kg", "value": "0.2 ± 0.1"}, {"measurement": "SREBP-1 gene expression (mean ± SD)", "setting": "30 mg/kg", "value": "0.9 ± 0.2"}, {"measurement": "Sulf-2 gene expression (mean ± SD)", "setting": "30 mg/kg", "value": "5.1 ± 1.1"}, {"measurement": "TIMP-1 gene expression (mean ± SD)", "setting": "30 mg/kg", "value": "9.9 ± 4.9"}, {"measurement": "TNF-α gene expression (mean ± SD)", "setting": "30 mg/kg", "value": "4.0 ± 1.8"}, {"measurement": "α-SMA gene expression (mean ± SD)", "setting": "30 mg/kg", "value": "2.6 ± 0.6"}, {"measurement": "ACC1 gene expression (mean ± SD)", "setting": "100 mg/kg", "value": "0.7 ± 0.1"}, {"measurement": "ACC2 gene expression (mean ± SD)", "setting": "100 mg/kg", "value": "0.4 ± 0.1"}, {"measurement": "ADH-4 gene expression (mean ± SD)", "setting": "100 mg/kg", "value": "0.6 ± 0.1"}, {"measurement": "ANGPTL3 gene expression (mean ± SD)", "setting": "100 mg/kg", "value": "0.4 ± 0.1"}, {"measurement": "ANGPTL4 gene expression (mean ± SD)", "setting": "100 mg/kg", "value": "1.6 ± 0.3"}, {"measurement": "ANGPTL8 gene expression (mean ± SD)", "setting": "100 mg/kg", "value": "0.4 ± 0.1"}, {"measurement": "ApoC-III gene expression (mean ± SD)", "setting": "100 mg/kg", "value": "0.5 ± 0.0"}, {"measurement": "CCR2 gene expression (mean ± SD)", "setting": "100 mg/kg", "value": "1.6 ± 0.4"}, {"measurement": "CCR5 gene expression (mean ± SD)", "setting": "100 mg/kg", "value": "1.4 ± 0.3"}, {"measurement": "CRP gene expression (mean ± SD)", "setting": "100 mg/kg", "value": "0.6 ± 0.1"}, {"measurement": "CXCL1/KC gene expression (mean ± SD)", "setting": "100 mg/kg", "value": "0.2 ± 0.1"}, {"measurement": "Fetuin-A gene expression (mean ± SD)", "setting": "100 mg/kg", "value": "0.7 ± 0.1"}, {"measurement": "IL-1β gene expression (mean ± SD)", "setting": "100 mg/kg", "value": "1.1 ± 0.5"}, {"measurement": "IL-6 gene expression (mean ± SD)", "setting": "100 mg/kg", "value": "0.9 ± 0.3"}, {"measurement": "LDL receptor gene expression (mean ± SD)", "setting": "100 mg/kg", "value": "0.9 ± 0.2"}, {"measurement": "LPL gene expression (mean ± SD)", "setting": "100 mg/kg", "value": "7.4 ± 0.9"}, {"measurement": "MCP-1 gene expression (mean ± SD)", "setting": "100 mg/kg", "value": "1.7 ± 0.7"}, {"measurement": "MIP-1β gene expression (mean ± SD)", "setting": "100 mg/kg", "value": "2.3 ± 0.9"}, {"measurement": "MMP-2 gene expression (mean ± SD)", "setting": "100 mg/kg", "value": "0.5 ± 0.2"}, {"measurement": "NF-κB gene expression (mean ± SD)", "setting": "100 mg/kg", "value": "0.9 ± 0.1"}, {"measurement": "PNPLA3 gene expression (mean ± SD)", "setting": "100 mg/kg", "value": "0.2 ± 0.1"}, {"measurement": "SCD1 gene expression (mean ± SD)", "setting": "100 mg/kg", "value": "0.3 ± 0.1"}, {"measurement": "SREBP-1 gene expression (mean ± SD)", "setting": "100 mg/kg", "value": "0.9 ± 0.2"}, {"measurement": "Sulf-2 gene expression (mean ± SD)", "setting": "100 mg/kg", "value": "3.8 ± 0.7"}, {"measurement": "TIMP-1 gene expression (mean ± SD)", "setting": "100 mg/kg", "value": "3.8 ± 1.6"}, {"measurement": "TNF-α gene expression (mean ± SD)", "setting": "100 mg/kg", "value": "2.0 ± 0.8"}, {"measurement": "α-SMA gene expression (mean ± SD)", "setting": "100 mg/kg", "value": "2.4 ± 0.9"}, {"measurement": "ACC1 gene expression (mean ± SD)", "setting": "300 mg/kg", "value": "0.8 ± 0.1"}, {"measurement": "ACC2 gene expression (mean ± SD)", "setting": "300 mg/kg", "value": "0.5 ± 0.1"}, {"measurement": "ADH-4 gene expression (mean ± SD)", "setting": "300 mg/kg", "value": "0.5 ± 0.1"}, {"measurement": "ANGPTL3 gene expression (mean ± SD)", "setting": "300 mg/kg", "value": "0.4 ± 0.1"}, {"measurement": "ANGPTL4 gene expression (mean ± SD)", "setting": "300 mg/kg", "value": "1.7 ± 0.3"}, {"measurement": "ANGPTL8 gene expression (mean ± SD)", "setting": "300 mg/kg", "value": "0.2 ± 0.1"}, {"measurement": "ApoC-III gene expression (mean ± SD)", "setting": "300 mg/kg", "value": "0.4 ± 0.1"}, {"measurement": "CCR2 gene expression (mean ± SD)", "setting": "300 mg/kg", "value": "1.7 ± 0.7"}, {"measurement": "CCR5 gene expression (mean ± SD)", "setting": "300 mg/kg", "value": "1.3 ± 0.3"}, {"measurement": "CRP gene expression (mean ± SD)", "setting": "300 mg/kg", "value": "0.5 ± 0.1"}, {"measurement": "CXCL1/KC gene expression (mean ± SD)", "setting": "300 mg/kg", "value": "0.2 ± 0.1"}, {"measurement": "Fetuin-A gene expression (mean ± SD)", "setting": "300 mg/kg", "value": "0.7 ± 0.1"}, {"measurement": "IL-1β gene expression (mean ± SD)", "setting": "300 mg/kg", "value": "0.7 ± 0.3"}, {"measurement": "IL-6 gene expression (mean ± SD)", "setting": "300 mg/kg", "value": "0.6 ± 0.2"}, {"measurement": "LDL receptor gene expression (mean ± SD)", "setting": "300 mg/kg", "value": "0.8 ± 0.1"}, {"measurement": "LPL gene expression (mean ± SD)", "setting": "300 mg/kg", "value": "6.9 ± 1.1"}, {"measurement": "MCP-1 gene expression (mean ± SD)", "setting": "300 mg/kg", "value": "1.6 ± 0.7"}, {"measurement": "MIP-1β gene expression (mean ± SD)", "setting": "300 mg/kg", "value": "2.8 ± 1.4"}, {"measurement": "MMP-2 gene expression (mean ± SD)", "setting": "300 mg/kg", "value": "0.9 ± 0.2"}, {"measurement": "NF-κB gene expression (mean ± SD)", "setting": "300 mg/kg", "value": "0.8 ± 0.1"}, {"measurement": "PNPLA3 gene expression (mean ± SD)", "setting": "300 mg/kg", "value": "0.2 ± 0.2"}, {"measurement": "SCD1 gene expression (mean ± SD)", "setting": "300 mg/kg", "value": "0.4 ± 0.2"}, {"measurement": "SREBP-1 gene expression (mean ± SD)", "setting": "300 mg/kg", "value": "0.7 ± 0.1"}, {"measurement": "Sulf-2 gene expression (mean ± SD)", "setting": "300 mg/kg", "value": "3.3 ± 0.9"}, {"measurement": "TIMP-1 gene expression (mean ± SD)", "setting": "300 mg/kg", "value": "4.4 ± 2.1"}, {"measurement": "TNF-α gene expression (mean ± SD)", "setting": "300 mg/kg", "value": "1.9 ± 0.7"}, {"measurement": "α-SMA gene expression (mean ± SD)", "setting": "300 mg/kg", "value": "2.5 ± 0.7"}]}
